Reference: patent US6660255B1, “Inhibition of gene transcription by polyamide DNA-binding ligands” (California Institute of Technology, priority 1997, dated 2003)

Key:
Ets-1 ΔN331/DNA complex = experiment: Gel mobility shift, Ets-1 binding to HIV-1 enhancer oligonucleotide
[1] = test system: 5′-WGCWGCW-3′ sequences adjacent to the HIV-1 TATA element; experiment: DNase I footprint titration at sites flanking the HIV-1 TATA element; format: binding
Protocol: The recognition sites for polyamide HIV-1 are of the form 5′-WGCWGCW-3″ (where W=A or T).
White, S., Baird, E. E. & Dervan, P. B. describes the pairing rules for recognition in the minor groove of DNA by pyrrole-imidazole polyamides. […] Labeled DNA was incubated with polyamide (45 minutes) and digested with DNase I under single-hit conditions.
(§1) Regions of polyamide protection were determined by analysis of the digestion products on a 6% denaturing polyacrylamide sequencing gel. Storage phosphorimage analysis of the data was used to obtain dissociation constants for the binding reactions (using Kodak Storage Phosphor Screens and a Molecular Dynamics SF PhosphorImager). Recombinant human TBP (rhTBP) was obtained from Promega and was used in footprinting and gel mobility shift experiments as recommended. The reaction mixtures also contained 100 ng of poly dG-poly dC per 10 μL gel shift reaction or 50 μL footprinting reaction. For gel mobility shift assays, 6% polyacrylamide gels (20:1, acrylamide to bisacrylamide) contained 44 mM Tris-borate, pH 8.3, 1 mM EDTA, […] and 0.02% (v/v) NP-40. The same buffer was used for electrophoresis of 1 mm thick gels at 15 volts/cm for 2 hours at 4° C.

[2] = test system: TBP binding to the TATA box region of the adenovirus major late promoter; experiment: Gel mobility shift, TBP binding to adenovirus major late promoter TATA box; set-up: species or system human; conditions: mismatch flanking sequences
Protocol: as §1

wild-type HIV-1 promoter = experiment: HIV-1 transcription in vitro with lymphoid cell nuclear extract; format: biochemical; conditions: read-out: polyamide concentration for fifty percent inhibition of HIV-1 transcription
Protocol: The recognition sites for polyamide HIV-1 are of the form 5′-WGCWGCW-3″ (where W=A or T). Since a pyrrole-pyrrole pair can recognize either an A-T base pair or a T-A base pair, polyamide HIV-1 will recognize both the 5′ and 3′ flanking sequences of the HIV-1 TATA element. […] This concentration corresponds to only a 16-fold excess of polyamide over specific binding sites in the HIV-1 plasmid DNA (3 nM).

HIV-1 strain WEAU1.6 = experiment: HIV-1 replication in human PBMC, p24 ELISA; format: cell-based; conditions: mismatch controls, alone or in combination
Protocol: PBMC were infected with the T cell-tropic HIV-1 strain WEAU1.6, or the macrophage-tropic strain SF162. […] Polyamides were added to the culture medium and the levels of HIV-1 p24 viral capsid protein in the culture media were determined on subsequent days using a standard ELISA assay.
Human PBMC were separated from whole blood collected from normal adult volunteers by density gradient centrifugation as described. […] Human PBMC were activated with 2 μg/mL PHA and 20 units/mL of IL-2 for 2-3 days prior to HIV-1 infection. […] Free virus was removed by washing the cells in medium, and polyamides added to the culture. […] Virus replication in culture was measured by HIV-1 p24 viral capsid antigen ELISA (DuPont Medical Products, Boston, Mass.).
PBMC cultures were infected with the primary HIV-1 isolate WEAU 1.6 (kindly provided by G. Shaw), and virus replication measured by release of p24 capsid antigen into the medium that was detected by antibody-capture ELISA (Dupont). Each experiment involved a separate PBMC donor.

[3] = test system: IE86 binding to the CMV MIEP; experiment: DNase I footprinting, IE86 binding to the crs element; set-up: species or system human cytomegalovirus; conditions: approximately 250 nM IE86
Excerpt: (§2) These compounds together with purified recombinant IE86 protein were used in DNase I footprint experiments with a singly end-labeled restriction fragment derived from the CMV major immediate early promoter. […] A singly-end labeled restriction fragment was used in DNase I footprinting reactions. […] Lanes 1 and 18 represent a G+A sequencing ladder. […] The location of the TATA box and the start of transcription are indicated.

[4] = test system: 5′-AGTGAA-3′ within the IE86 binding site; set-up: species or system human cytomegalovirus; conditions: 1-200 nM
Excerpt: as §2

[5] = test system: rhTBP binding to the HIV-1 TATA element; experiment: DNase I footprinting, inhibition of TBP binding to HIV-1 LTR fragment; set-up: species or system human
Protocol: as §1

CN(C)CCCNC(=O)CCNC(=O)c1cc(NC(=O)c2nc(NC(=O)CCNC(=O)c3cc(NC(=O)c4nc(NC(=O)CCCNC(=O)c5cc(NC(=O)c6nc(NC(=O)CCNC(=O)c7cc(NC(=O)c8nccn8C)cn7C)cn6C)cn5C)cn4C)cn3C)cn2C)cn1C [polyamide 4, ImPy-β-ImPy-γ-ImPy-β-ImPy-β-Dp]
effect on Ets-1 DNA-binding / complex formation (Ets-1 ΔN331/DNA complex; polyamide preincubated with oligonucleotide, 100-400 nM): did not prevent
effect on complex formation in the same concentration range (Ets-1 ΔN331/DNA complex; titration, mismatch polyamide): virtually no effect
Ka ([1]; HIV-1 TATA box region): 2e+10 M⁻¹
fold reduced affinity relative to the match polyamide ([1]; mismatch control polyamide): 100 fold
Kd ([1]; sites flanking the TATA element, 5′-AGCTGCA-3′ / 5′-TGCTGCA-3′, read-out: apparent/equilibrium dissociation constant (Kd)): 0.05 nM
inhibition of TBP binding to adenovirus major late promoter TATA box [2]: did not inhibit
IC50 (wild-type HIV-1 promoter): ~50 nM
effect on the level of virus in the medium (HIV-1 strain WEAU1.6): had no effect
interference with IE86 binding [3]: did not interfere
footprint on the CMV fragment [4]: did not give a footprint
inhibition of TBP binding to the HIV-1 TATA element ([5]; DNase I footprinting, 2.5-10 nM polyamide): inhibited
polyamide concentration at which TBP binding is inhibited ([5]; five-fold excess of polyamide over DNA binding sites): 2.5 nM
